Measurements reported in patent US20250268980A1, “AN ANTICANCER THERAPY TARGETING RAS AND OTHER ONCOGENIC SIGNALS BY INHIBITION OF DYNAMIC BLEBBING AND/OR SEPTINS” (THE BOARD OF REGENTS OF THE UNIVERSITY OF TEXAS SYSTEM, priority 2022, published 2025).

Columns and labels:
MEF cells = assay: Caspase activity assay (CellEvent Caspase-3/7) in MEF cells expressing DYN2 (K44A); assay type: cell-based, mouse; conditions: 10 μg/mL WGA or 50 μM FCF; for anoikis resistance acquired by DYN2 (K44A) expression: MEF DYN2 (K44A); for caspase activation: detached MEF DYN2 (K44A), 4 hours
From the text: Inhibitors. Wheat Germ Agglutinin (WGA) was purchased from Sigma (product #L9640). Forchlorfenuron (FCF) was purchased from Sigma (product #C2791). VitroGel and VitroGel-RGD were purchased from TheWell Bioscience (sku #s TWG001 and TWG002). H1152 was purchased from Tocris (catalogue #2414). NSC6683394 was purchased from Sigma (product #341216). Dabrafenib (GSK2118436), and Trametinib (GSK1120212) were purchased from Selleckchem. Transient expression of dominant negative Dyn2 (K44A) 66,67 was achieved through adenovirus transduction68 as previously described69 with cells analyzed 16-18 hours after transduction.
(§1) Detached/Adhered Cell Culture. […] Drug treatments, solvent-only controls, or CellEvent caspase activity sensor were added to suspensions if appropriate to the experiment, and then immediately transferred to both an uncoated (for detached cells) and ibiTreated (for adhered cells) 8-well ibidi u-slide (ibidi cat #80821 and 80826) at 200 μl/well. Both slides were stored at 37° C. and 5% CO2 for either 24 hours (hrs) for viability assays, 3 hrs for ERK activity assays or 4 hours for caspase activation assays. Uncoated slides (detached) were nutated at 20 rpm during this time. […] For experiments using MAPKi A375 cells, Dabrafenib and Trametinib treatment was continued over the course of the experiment.
Viability, ERK Activity, and Caspase ActivityCell Counting Assays. Viability, ERK activity, and caspase activity assays were analyzed using live-cell fluorescent and phase-contrast microscopy, performed on a Nikon Ti microscope equipped with an environmental chamber held at 37° C. and 5% CO2 at 20× magnification. For viability assays, cells were stained with ethidium homodimer-1 (Invitrogen cat #E1169) at 4 µM and Hoechst (ThermoFisher cat #H3570) at 10 μg/ml for 15 minutes before imaging. Live and dead cells (as identified by significant cellular ethidium signal) were counted using the Cell Counter ImageJ plugin. For ERK activity assays, live cells carrying ERK-nKTR-GFP and H2B-mCherry were imaged after 3 hours of experimental conditions and high/low ERK activity cells were counted with Cell Counter ImageJ plugin. Cells in which nuclear GFP signals were by eye higher than cytoplasmic signal (“brighter” nucleus visible within “darker” cytoplasm) were labelled ERK low, while cytoplasmic signals equal to or higher than nuclear signal (nucleus indistinguishable from cytoplasm or “darker” nucleus within “brighter” cytoplasm) were labelled ERK high. To control for unconscious bias in making this determination, the identity of all ERK experimental groups were blinded from the analyst. […] Caspase positive and negative cells (as identified by significant cellular CellEvent signal) were counted using the Cell Counter ImageJ plugin.

M498 cells = assay: Detached/adhered viability assay, ethidium homodimer staining, M498; assay type: cell-based, human; conditions: for cell death: 24 hours of WGA
Method: (§2) Bleb formation was inhibited using wheat germ agglutinin (WGA), a lectin that reduces plasma membrane deformability by crosslinking components of the glycocalyx. […] To investigate putative bleb function as a driver of anchorage-independent cell survival assays were designed that consistently minimized both cell-substrate and cell-cell attachment over a period of 24 hours. This was accomplished by seeding cells at very low density (approx. 250 or 100 cells/ml) in non-adherent culture dishes under constant gentle agitation. For controls, cells were grown at identical concentrations in adherent variants of the same culture dishes. Together, this generated pairs of ‘detached’ and ‘adhered’ cell populations in paired same-day experiments.
Detached/Adhered Cell Culture. […] Drug treatments, solvent-only controls, or CellEvent caspase activity sensor were added to suspensions if appropriate to the experiment, and then immediately transferred to both an uncoated (for detached cells) and ibiTreated (for adhered cells) 8-well ibidi u-slide (ibidi cat #80821 and 80826) at 200 μl/well. Both slides were stored at 37° C. and 5% CO2 for either 24 hours (hrs) for viability assays, 3 hrs for ERK activity assays or 4 hours for caspase activation assays. Uncoated slides (detached) were nutated at 20 rpm during this time. […]
Viability, ERK Activity, and Caspase ActivityCell Counting Assays. Viability, ERK activity, and caspase activity assays were analyzed using live-cell fluorescent and phase-contrast microscopy, performed on a Nikon Ti microscope equipped with an environmental chamber held at 37° C. and 5% CO2 at 20× magnification. […] Live and dead cells (as identified by significant cellular ethidium signal) were counted using the Cell Counter ImageJ plugin. For ERK activity assays, live cells carrying ERK-nKTR-GFP and H2B-mCherry were imaged after 3 hours of experimental conditions and high/low ERK activity cells were counted with Cell Counter ImageJ plugin. […] Caspase positive and negative cells (as identified by significant cellular CellEvent signal) were counted using the Cell Counter ImageJ plugin.

A375 cells = assay: Detached/adhered viability assay, ethidium homodimer staining, A375; assay type: cell-based, human; conditions: for anoikis resistance (cell death adhered vs detached): 24 hours
Method: as §2
Cell Culture and Reagents. MV3 cells were obtained from MD Anderson Cancer Center. A375 cells (ATCCR CRL1619) were acquired from ATCC. M498 cells were acquired from UT Southwestern.
as §1
Cells Grown in VitroGel Coffins. VitroGel coffins were prepared by embedding MV3 or A375 cells in VitroGel 3D or RGD at 1:1 dilution according to manufacturer's instructions (TheWell Biosciences, sku #TWG001). […] A 1:1 solution of VitroGel and VitroGel Dilution Solution was made and added to cell suspension at a ratio of 4:1 (VitroGel: cells) using gentle pipetting until well-mixed (with care taken not to form bubbles). Cell/VitroGel solution was transferred to an 8-well uncoated ibidi μ-slide (ibidi cat #80821) at 100 μl/well, spread over the bottom of wells with a pipette tip, and allowed to polymerize at room temperature for 15 minutes. The remainder of the well was then filled with 10% FBS DMEM and slide was stored at 37° C. and 5% CO2 for either 24 hrs for viability assays, 3 hrs for ERK activity assays, or 1 hour for visualization of septins/PI3K activity.
Viability, ERK Activity, and Caspase ActivityCell Counting Assays. Viability, ERK activity, and caspase activity assays were analyzed using live-cell fluorescent and phase-contrast microscopy, performed on a Nikon Ti microscope equipped with an environmental chamber held at 37° C. and 5% CO2 at 20× magnification. For viability assays, cells were stained with ethidium homodimer-1 (Invitrogen cat #E1169) at 4 µM and Hoechst (ThermoFisher cat #H3570) at 10 μg/ml for 15 minutes before imaging. Live and dead cells (as identified by significant cellular ethidium signal) were counted using the Cell Counter ImageJ plugin. For ERK activity assays, live cells carrying ERK-nKTR-GFP and H2B-mCherry were imaged after 3 hours of experimental conditions and high/low ERK activity cells were counted with Cell Counter ImageJ plugin. Cells in which nuclear GFP signals were by eye higher than cytoplasmic signal (“brighter” nucleus visible within “darker” cytoplasm) were labelled ERK low, while cytoplasmic signals equal to or higher than nuclear signal (nucleus indistinguishable from cytoplasm or “darker” nucleus within “brighter” cytoplasm) were labelled ERK high. To control for unconscious bias in making this determination, the identity of all ERK experimental groups were blinded from the analyst. […]

Compound	anoikis resistance acquired by DYN2 (K44A) expression (MEF cells)	caspase activation (MEF cells)	anoikis resistance (cell death adhered vs detached) (M498 cells; M498, 50 μM FCF, 24 hours)	anoikis resistance (cell death adhered vs detached) (A375 cells; non-stressed A375, 50 μM FCF)	anoikis resistance (cell death adhered vs detached) (A375 cells; pre-stressed A375, 50 μM FCF)	cell death (M498 cells; adhered M498 cells)	cell death (M498 cells; detached M498 cells)	viability (A375 cells; adhered A375 pre-incubated 48 hours with 10 nM Dabrafenib and 1 nM Trametinib, WGA)	cell death (A375 cells; detached A375 pre-incubated 48 hours with 10 nM Dabrafenib and 1 nM Trametinib, WGA)	anoikis resistance upon bleb inhibition (A375 cells; pre-stressed A375 cells (overconfluent for 48 hours), WGA)	cell death (A375 cells; unstressed A375 cells, adhered or detached, 24 hours of WGA)
O=C(Nc1ccccc1)Nc1ccnc(Cl)c1 [FCF, forchlorfenuron]	reversed	returned to levels seen in matched non-blebbing control cells	greatly disrupted anoikis resistance	no appreciable effect	greatly disrupted anoikis resistance						
wheat germ agglutinin [WGA]	reversed	returned to levels seen in matched non-blebbing control cells				die upon WGA treatment	significantly more death	minimal change in viability	increased cell death	strongly dependent upon blebbing	unaffected
